Results: article PMC5988308, “Rhodanine derivatives as potent anti-HIV and anti-HSV microbicides” (PLoS ONE, 2018)
Values after ≈ are worked out from the molar mass of the structure shown. Like-named read-outs stand apart in the source and are kept apart here.

How the values were obtained:
[1] = Aqueous (thermodynamic) solubility; type: physicochemical; settings: thermodynamic from solid, water, 20°C, read-out: Water Solub.
Protocol: Each solid compound (1 mg) was added to 1 mL of water. Each sample was mixed at 20°C, in a shaker water bath for 24 h. The resulting suspension was filtered through a 0.45 μm nylon filter (Acrodisc). The concentration of solubilized compounds weres determined by UV/LC-MS (performed in triplicate) by comparison with the appropriate calibration curve that was obtained from samples of the compound dissolved in methanol at different concentrations.

[2] = Vero cell viability (MTS assay); type: cell-based; settings: African green monkey
Protocol: African green monkey fibroblastoid kidney cells (Vero, ATCC CCL-81) were grown as monolayers in Eagle's minimal essential medium (MEM) (Gibco/BRL, Gaithersburg, MD) supplemented with 10% heat inactivated fetal calf serum (FCS) and 1% antibiotic-antimycotic solution (Zell Shield, Minerva Biolabs GmbH, Berlin, Germany).
Cell viability was measured using the MTS [3-(4,5-dimethylthiazol-2-yl)-5-(3-carboxymethoxyphenyl)-2-(4-sulfophenyl)-2H-tetrazolium] assay. Cell cultures were seeded in 96-well plates were incubated with different concentrations of compounds in triplicate under the same experimental conditions described for the antiviral assays. Cell viability was determined using the CellTiter 96 Proliferation Assay Kit (Promega, Madison, WI, USA) according to the manufacturer's instructions. Absorbances were measured using a Microplate Reader (Model 680, BIORAD) at 490 nm. The effect on cell viability at different concentrations of the compound was expressed as a percentage, by comparing absorbances of treated cells with those of cells incubated with culture medium and equal volumes of vehicle.

[3] = system: HIV-1 AD8 (CCR5-tropic strain); experiment: Antiviral activity on TZM-bl cells infected with HIV-1 AD8 (CPRG assay); type: cell-based; settings: Human immunodeficiency virus 1, TZM-bl cells
Protocol: The human TZM-bl indicator cell line (obtained from the NIH AIDS reagents program, cat. Nr 8129 (www.aidsreagent.org) and maintained at 37°C and 5% CO2 in Dulbecco’s modified Eagle’s medium (DMEM) medium containing 10% fetal bovine serum, 50 μg/mL penicillin, and 50 μg/mL streptomycin. The HIV-1 laboratory strains NL(AD8) (NIH AIDS reagents program, cat.nr 11346), NL4.3 (NIH AIDS reagents program, cat. Nr. 114) were titrated as previously reported. Briefly, serial 5-fold dilutions of each virus were made in quadruplicate wells in 96-well culture plates, in a total volume of 100 μL of growth medium (DMEM), for a total of 8 dilution steps. Freshly trypsinized cells (20,000 cells in 100 μL of growth medium containing 75 μg/mL DEAE-dextran) were added to each well, and the plates were incubated at 37°C in a humidified 5% CO2-95% air environment. After 48 h of incubation, the medium was removed and viral infection was quantified using a β-galactosidase (CPRG) assay (Roche). Twenty thousand TZM-bl cells/well were seeded in 96-well plates in complete DMEM supplemented with 30 μg/mL DEAE-dextran (Sigma-Aldrich). Three hundred times the 50% tissue culture infective dose (TCID50)/mL of each strain was pretreated for 1 h at 37°C with six serial dilutions ([…] to 3.2 nM) of each compound and then added to the cells, as previously described. Vehicle (0.1% dimethyl sulfoxide [DMSO])-treated cells served as a negative control. […] After 2 days, viral infection was quantified using a CPRG assay (Roche). The inhibitory curves were fitted by nonlinear regression, allowing for the calculation of the 50% inhibitory concentration (IC50) using the Prism software. To evaluate the cell toxicity of the compounds, the metabolic XTT [2,3-bis-(2-methoxy-4-nitro-5-sulfophenyl)-2H-tetrazolium-5-carboxanilide] test (Sigma-Aldrich) was performed according to the manufacturer’s instructions.

[4] = target: human serum albumin (HSA) (Homo sapiens, UniProt P02768); experiment: Albumin binding fluorimetric assay, HSA; settings: fluorescence quenching, 10 μM HSA
Chain of human serum albumin (HSA) (P02768 25-609): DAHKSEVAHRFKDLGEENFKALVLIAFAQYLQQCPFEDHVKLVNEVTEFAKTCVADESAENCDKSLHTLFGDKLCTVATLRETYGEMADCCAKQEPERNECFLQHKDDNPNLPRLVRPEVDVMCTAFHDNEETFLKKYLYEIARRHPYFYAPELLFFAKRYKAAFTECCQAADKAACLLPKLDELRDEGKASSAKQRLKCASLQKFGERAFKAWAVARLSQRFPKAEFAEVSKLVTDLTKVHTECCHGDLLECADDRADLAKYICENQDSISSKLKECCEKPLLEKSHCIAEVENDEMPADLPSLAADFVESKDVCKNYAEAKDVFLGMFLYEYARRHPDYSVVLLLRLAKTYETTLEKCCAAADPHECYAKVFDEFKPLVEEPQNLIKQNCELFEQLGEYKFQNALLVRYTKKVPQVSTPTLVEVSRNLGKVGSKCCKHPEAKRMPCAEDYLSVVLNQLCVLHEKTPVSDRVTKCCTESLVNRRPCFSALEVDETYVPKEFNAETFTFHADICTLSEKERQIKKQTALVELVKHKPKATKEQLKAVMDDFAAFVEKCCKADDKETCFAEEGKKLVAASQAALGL
Protocol: The binding of each compounds to HSA (human serum albumin) and BSA (bovine serum albumin) were monitored by fluorescence spectroscopy in order to determine the dissociation constant (Kd). A quantitative analysis of the potential interaction was performed by fluorimetric analysis using 96 multiwell plates: in each well a fixed concentration of HSA or BSA (10μM in phosphate buffer 1 mM), was added with different amounts of tested compound (0.1μM to 500μM by stock solutions in DMSO). […] The obtained fluorescence quenching percentages were plotted against drug concentrations and the relative Kd values were obtained using GraphPad software (version 6.0).

[5] = target: bovine serum albumin (BSA) (Bos taurus, UniProt P02769); experiment: Albumin binding fluorimetric assay, BSA; settings: fluorescence quenching, 10 μM BSA
Chain of bovine serum albumin (BSA) (P02769 25-607): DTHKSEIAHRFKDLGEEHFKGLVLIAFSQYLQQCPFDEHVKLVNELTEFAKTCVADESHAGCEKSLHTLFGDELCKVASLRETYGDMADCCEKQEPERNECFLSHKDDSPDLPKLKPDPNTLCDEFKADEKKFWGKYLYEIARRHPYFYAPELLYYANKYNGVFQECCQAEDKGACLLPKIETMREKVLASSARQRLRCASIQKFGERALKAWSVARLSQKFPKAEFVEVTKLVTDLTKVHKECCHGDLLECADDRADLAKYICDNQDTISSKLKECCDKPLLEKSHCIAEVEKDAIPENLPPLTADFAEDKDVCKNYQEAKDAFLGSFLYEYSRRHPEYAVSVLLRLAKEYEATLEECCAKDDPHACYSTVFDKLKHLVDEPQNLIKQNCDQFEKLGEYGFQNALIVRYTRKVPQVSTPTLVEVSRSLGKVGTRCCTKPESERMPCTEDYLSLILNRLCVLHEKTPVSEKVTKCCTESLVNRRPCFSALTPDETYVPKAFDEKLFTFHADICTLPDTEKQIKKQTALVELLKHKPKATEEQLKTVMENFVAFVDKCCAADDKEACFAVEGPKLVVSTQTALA
Protocol: The binding of each compounds to HSA (human serum albumin) and BSA (bovine serum albumin) were monitored by fluorescence spectroscopy in order to determine the dissociation constant (Kd). A quantitative analysis of the potential interaction was performed by fluorimetric analysis using 96 multiwell plates: in each well a fixed concentration of HSA or BSA (10μM in phosphate buffer 1 mM), was added with different amounts of tested compound (0.1μM to 500μM by stock solutions in DMSO). Plates were gently shacked and after allowing 30 minutes at room temperature for equilibration, after excitation at 295nm, spectra were recorded from 300 to 400 nm with a Perkin Elmer EnVision Multilabel Reader 2014 spectrofluorimeter, spectra were acquired with EnVision Manager ver.1.13 software. The obtained fluorescence quenching percentages were plotted against drug concentrations and the relative Kd values were obtained using GraphPad software (version 6.0).

[6] = Vero cells, HSV-2 assay conditions, read-out: Citotoxicity (Vero cells) CC50
[7] = pre-incubation in complete medium containing fetal bovine serum (FBS), read-out: AD8 EC50 a
[8] = pre-incubation with virus without serum, read-out: AD8 EC50

| SMILES | solubility at 24 h [1] | CC50 [2, 6] | EC50 [3, 7] | EC50 [3, 8] | Kd [4] | Kd [5] | CC50 ([2]; Vero cell CC50 (HSV-2 acyclovir resistant rows)) | CC50 ([2]; Vero cells, HSV-1 assay conditions, read-out: Vero cell CC50 (HSV-1)) |
| --- | --- | --- | --- | --- | --- | --- | --- | --- |
| O=C(O)c1ccc(-c2ccc(/C=C3\SC(=S)N(c4ccc(F)c(Cl)c4)C3=O)o2)cc1O [Compound 9e, (Z)-4-(5-((3-(3-chloro-4-fluorophenyl)-4-oxo-2-thioxothiazolidin-5-ylidene)methyl)furan-2-yl)-2-hydroxybenzoic acid] | 0.72 ± 0.12 µg/mL (≈ 1.51 µM) | > 100000 nM | 400 ± 14 nM | 26 ± 6 nM | 2190 ± 1000 nM | 1070 ± 900 nM |  |  |
| Cc1ccc(CCN2C(=O)/C(=C/c3ccc(-c4ccc(C(=O)O)c(O)c4)o3)SC2=S)cc1 [Compound 9b, (Z)-2-hydroxy-4-(5-((3-(4-methylphenethyl)-4-oxo-2-thioxothiazolidin-5-ylidene)methyl)furan-2-yl)benzoic acid] | 0.1 ± 0.08 µg/mL (≈ 0.215 µM) |  | 404 ± 20 nM | 46.7 ± 9 nM | 1570 ± 200 nM | 1550 ± 300 nM |  |  |
| O=C(O)c1ccc(-c2ccc(/C=C3\SC(=S)N(CCCc4ccccc4)C3=O)o2)cc1O [Compound 9c, (Z)-2-hydroxy-4-(5-((4-oxo-3-(3-phenylpropyl)-2-thioxothiazolidin-5-ylidene)methyl)furan-2-yl)benzoic acid] | 0.3 ± 0.07 µg/mL (≈ 0.644 µM) | 205000 ± 30100 nM | 378 ± 15 nM | 27.5 ± 4 nM | 1190 ± 100 nM | 1050 ± 100 nM |  |  |
| CCc1ccc(CCN2C(=O)/C(=C/c3ccc(-c4ccc(C(=O)O)c(O)c4)o3)SC2=S)cc1 [Compound 9d, (Z)-4-(5-((3-(4-ethylphenethyl)-4-oxo-2-thioxothiazolidin-5-ylidene)methyl)furan-2-yl)-2-hydroxybenzoic acid] | 0.25 ± 0.09 µg/mL (≈ 0.521 µM) | 16900 ± 4310 nM | 186 ± 9 nM | 36 ± 3 nM | 1090 ± 900 nM | 990 ± 900 nM |  |  |
| O=C(O)c1ccc(-c2ccc(/C=C3\SC(=S)N(Cc4ccc(Cl)c(F)c4)C3=O)o2)cc1O [Compound 9f, (Z)-4-(5-((3-(4-chloro-3-fluorobenzyl)-4-oxo-2-thioxothiazolidin-5-ylidene)methyl)furan-2-yl)-2-hydroxybenzoic acid] | 0.73 ± 0.14 µg/mL (≈ 1.49 µM) | 7870 ± 2980 nM | 560 ± 10 nM | 20 ± 4 nM | 2230 ± 1200 nM | 1090 ± 900 nM |  |  |
| O=C(O)c1ccc(-c2ccc(/C=C3\SC(=S)N(CCc4ccc(F)cc4)C3=O)o2)cc1O [Compound 9a, (Z)-4-(5-((3-(4-fluorophenethyl)-4-oxo-2-thioxothiazolidin-5-ylidene)methyl)furan-2-yl)-2-hydroxybenzoic acid] | 0.54 ± 0.08 µg/mL (≈ 1.15 µM) | > 300000 nM | 116 ± 24 nM | 7.5 nM | 1510 ± 200 nM | 1080 ± 200 nM |  |  |
| O=C(O)c1ccc(-c2ccc(/C=C3\SC(=S)N(Cc4ccc(Cl)cc4)C3=O)o2)cc1O [Compound 2] | 0.52 ± 0.13 µg/mL (≈ 1.1 µM) | 112000 ± 11600 nM | 650 nM | 6.9 nM | 960 ± 100 nM | 630 ± 100 nM | 112000 ± 11600 nM | 98000 ± 23100 nM |
| O=C(O)c1ccc(-c2ccc(/C=C3\SC(=S)N(Cc4ccc(F)cc4)C3=O)o2)cc1O [Compound 1] | 0.88 ± 0.1 µg/mL (≈ 1.93 µM) | 224000 ± 78500 nM | 1395 ± 10 nM | 32.3 ± 3 nM | 630 ± 100 nM | 680 ± 100 nM |  |  |
